Assay results reported in ChEMBL document CHEMBL5038648, “Dolabellane Diterpenes and Elemane Alkaloids from the Soft Coral Clavularia inflata Collected in the South China Sea” (J Nat Prod, 2022).
Calls of active or inactive are those of the source. The rule behind the calls is not given here.

Legend:
Danio rerio [1] = organism: Danio rerio; assay: Antiinflammatory activity in transgenic fluorescent zebrafish expressing EGFP assessed as reduction in CuSO4 induced number of macrophages surrounding the neuromast at 20 uM preincubated for 2 hrs followed by Cuso4 addition and measured after 1 hr by fluorescence microscopic analysis; assay type: functional, organism-based; conditions: time 3.0 hrs
Danio rerio [2] = organism: Danio rerio; assay: Antiinflammatory activity in transgenic fluorescent zebrafish expressing EGFP assessed as reduction in CuSO4 induced macrophage migration at 20 uM preincubated for 2 hrs followed Cuso4 addition and measured after 1 hr by fluorescence microscopic analysis; assay type: functional, organism-based; conditions: time 3.0 hrs

| Compound | Activity (Danio rerio [1]) | Activity (Danio rerio [2]) |
| --- | --- | --- |
| C=C[C@@]1(C)C[C@H]2NC(=O)C(C)=C2C[C@@H]1C(=C)C(=O)OC | Active | Active |
| C=C1CC/C=C(\C)C[C@@H](O)[C@@H]2C(C(C)(C)O)=CC[C@@]2(C)CC1 | Active | Active |
| C=C1CC/C=C(\C)C[C@H]2OC(=O)C(C)=C3CC[C@@](C)(CC1)[C@@H]32 | Active | Active |
| CC1=C2CC[C@@]3(C)CC/C(C)=C/C(=O)C[C@@H](C)C[C@@H](OC1=O)[C@H]23 | Active | Active |
| C=C[C@]1(C)C[C@@H]2NC(=O)C(C)=C2C[C@H]1C(=C)C(=O)OC | Active | Active |
| COc1ccc2c(c1)c(CC(=O)O)c(C)n2C(=O)c1ccc(Cl)cc1 | Active | Active |
| CC1=C2CC[C@@]3(C)CC/C(C)=C\C(=O)C[C@@H](C)C[C@@H](OC1=O)[C@]23OO | Active | Active |
| CC1=C2CC[C@@]3(C)/C=C/[C@]4(C)C[C@](O)(C[C@@H](C)C[C@@H](OC1=O)[C@H]23)OO4 | Active | Active |
| CC1=C2C(=O)C[C@@]3(C)CC/C(C)=C\C(=O)C[C@@H](C)C[C@@H](OC1=O)[C@H]23 | Active | Active |
